In patent US10093660B2, “Sulfoximine substituted quinazolines for pharmaceutical compositions” (EVOTEC INTERNATIONAL GMBH, priority 2013, dated 2018):

Target: MNK2a (Homo sapiens (Human), UniProt Q9HBH9)
Experiment: MNK2a in vitro kinase assay (Assay 2), ADP-Glo
Assay type: biochemical
Conditions: not given
Source text: B. MNK2a In Vitro Kinase Assay (Assay 2)

Chain of MNK2a (Q9HBH9 whole entry): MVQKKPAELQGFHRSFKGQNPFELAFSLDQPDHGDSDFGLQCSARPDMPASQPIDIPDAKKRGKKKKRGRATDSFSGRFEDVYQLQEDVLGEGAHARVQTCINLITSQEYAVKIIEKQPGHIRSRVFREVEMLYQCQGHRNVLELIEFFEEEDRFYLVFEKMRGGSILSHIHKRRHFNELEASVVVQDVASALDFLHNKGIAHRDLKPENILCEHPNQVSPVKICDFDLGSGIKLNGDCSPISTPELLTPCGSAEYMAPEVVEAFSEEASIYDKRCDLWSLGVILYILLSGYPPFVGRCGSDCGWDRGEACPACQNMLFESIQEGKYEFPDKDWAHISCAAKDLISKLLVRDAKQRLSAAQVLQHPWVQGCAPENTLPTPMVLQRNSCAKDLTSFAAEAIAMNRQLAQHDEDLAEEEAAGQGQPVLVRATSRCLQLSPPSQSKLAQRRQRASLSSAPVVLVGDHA

IC50 | Compound
4 nM | CO[C@@H]1COC[C@@H]1Oc1cc(F)ccc1Nc1ncnc2cc(N=S(C)(C)=O)cc(C)c12 (racemic) [Example 2.9]

Same assay, conditions: assay 2; read-out: MNK2 IC50

Compound | IC50
COc1cc(N=S2(=O)CCC(O)CC2)cc2ncnc(Nc3ccc(F)cc3O[C@H]3COC[C@H]3O)c12 (mixture of isomers) [Example 9.25] | 26 nM
COc1cc(N=S(C)(=O)c2ccncc2)cc2ncnc(Nc3ccc(F)cc3O[C@H]3COC[C@H]3O)c12 (mixture of isomers) [Example 9.27] | 86 nM
CO[C@H]1COC[C@H]1Oc1ncccc1Nc1ncnc2cc(N=S3(=O)CCCC3)cc(C)c12 (racemic) [Example 2.2] | 6 nM
Cc1cc(N=S(C)(C)=O)cc2ncnc(Nc3cccnc3O[C@H]3COC[C@H]3OCCF)c12 (racemic) [Example 2.26] | 3 nM
O=S1(=Nc2cc(F)c3c(Nc4ccc(F)cc4O[C@@H]4COC[C@@H]4O)ncnc3c2)CCC1 (racemic) [Example 2.87] | 10 nM
CS(=O)(=Nc1cc(F)c2c(Nc3ccc(F)cc3O[C@@H]3COC[C@@H]3O)ncnc2c1)c1cccnc1 (mixture of isomers) [Example 2.89] | 51 nM
CC(C)S(C)(=O)=Nc1cc(F)c2c(Nc3ccc(F)cc3O[C@@H]3COC[C@@H]3O)ncnc2c1 (mixture of isomers) [Example 2.90] | 70 nM
O=S1(=Nc2cc(F)c3c(Nc4ccc(F)cc4O[C@@H]4COC[C@@H]4O)ncnc3c2)CCC(O)CC1 (mixture of isomers) [Example 2.94] | 39 nM
CS(=O)(=Nc1cc(F)c2c(Nc3ccc(F)cc3O[C@@H]3COC[C@@H]3O)ncnc2c1)c1ccccc1 (mixture of isomers) [Example 2.95] | 54 nM
CC1CCS(=O)(=Nc2cc(F)c3c(Nc4ccc(F)cc4O[C@@H]4COC[C@@H]4O)ncnc3c2)C1 (mixture of isomers) [Example 2.96] | 9 nM
Cc1cc(N=S2(=O)CCCC2)cc2ncnc(Nc3ccc(F)cc3O[C@@H]3COC[C@H]3F)c12 (racemic) [Example 2.101] | 6 nM
Cc1cc(N=S2(=O)CCCC2)cc2ncnc(Nc3ccc(F)cc3O[C@H]3CN(C)C[C@@H]3O)c12 [Example 2.61] | 12 nM
CS(=O)(=Nc1cc(F)c2c(Nc3ccc(F)cc3O[C@H]3COC[C@@H]3O)ncnc2c1)c1cccnc1 (stereo partly shown) [Example 2.69] | 22 nM
CS(=O)(=Nc1cc(F)c2c(Nc3ccc(F)cc3O[C@H]3COC[C@@H]3O)ncnc2c1)c1ccccc1 (stereo partly shown) [Example 2.86] | 13 nM
CS(=O)(=Nc1cc(F)c2c(Nc3ccc(F)cc3O[C@H]3COC[C@@H]3O)ncnc2c1)C1CCOCC1 (stereo partly shown) [Example 2.88] | 32 nM
CS(=O)(=Nc1cc(F)c2c(Nc3ccc(F)cc3O[C@H]3COC[C@@H]3O)ncnc2c1)c1ccncc1 (stereo partly shown) [Example 2.97] | 71 nM
COc1cc(N=S2(=O)CCC2)cc2ncnc(Nc3ccc(Cl)nc3O[C@H]3COC[C@@H]3O)c12 [Example 9.5] | 1 nM
COc1cc(N=S2(=O)CCC(O)CC2)cc2ncnc(Nc3ccc(F)cc3O[C@H]3COC[C@@H]3O)c12 (stereo partly shown) [Example 9.26] | 7 nM
COc1cc(N=S(C)(=O)c2ccccc2)cc2ncnc(Nc3ccc(F)cc3O[C@H]3COC[C@@H]3O)c12 (stereo partly shown) [Example 9.28] | 13 nM
COc1cc(N=S(C)(=O)c2ccncc2)cc2ncnc(Nc3ccc(F)cc3O[C@H]3COC[C@@H]3O)c12 (stereo partly shown) [Example 9.30] | 43 nM

Continued, values first:

IC50 | Compound
106 nM | CS(=O)(=Nc1cc(F)c2c(Nc3ccc(F)cc3O[C@@H]3COC[C@@H]3O)ncnc2c1)C1CC1 (mixture of isomers) [Example 2.91]
6 nM | Cc1cc(N=S(C)(C)=O)cc2ncnc(Nc3ccc(F)cc3O[C@@H]3C[C@@H]4CC[C@H]3O4)c12 (racemic) [Example 2.98]
3 nM | Cc1cc(N=S(C)(C)=O)cc2ncnc(Nc3ccc(F)cc3O[C@H]3C[C@@H]4CO[C@H]3C4)c12 (racemic) [Example 2.99]
25 nM | Cc1cc(N=S(C)(C)=O)cc2ncnc(Nc3ccc(F)cc3O[C@@H]3COC[C@H]3F)c12 (racemic) [Example 2.100]
2 nM | CS(C)(=O)=Nc1cc(Cl)c2c(Nc3ccc(F)cc3O[C@H]3COC[C@@H]3O)ncnc2c1 [Example 1.8]
21 nM | CS(C)(=O)=Nc1cc(C2CC2)c2c(Nc3ccc(F)cc3O[C@H]3COC[C@@H]3O)ncnc2c1 [Example 1.10]
20 nM | CS(=O)(=Nc1cc(F)c2c(Nc3ccc(F)cc3O[C@H]3COC[C@@H]3O)ncnc2c1)C1CC1 (stereo partly shown) [Example 2.73]
15 nM | COc1cc(N=S(C)(=O)C2CCOCC2)cc2ncnc(Nc3ccc(F)cc3O[C@H]3COC[C@@H]3O)c12 (stereo partly shown) [Example 9.11]
18 nM | COc1cc(N=S(C)(=O)C2CC2)cc2ncnc(Nc3ccc(F)cc3O[C@H]3COC[C@@H]3O)c12 (stereo partly shown) [Example 9.22]
3 nM | Cc1cc(N=S2(=O)CCC2)cc2ncnc(Nc3ccc(F)cc3OC3CCC(O)OC3)c12 (stereo not shown) [Example 12.1]
3 nM | Cc1cc(N=S(C)(C)=O)cc2ncnc(Nc3ccc(F)cc3OC3CCC(O)OC3)c12 (stereo not shown) [Example 12.2]
7 nM | CO[C@H]1COC[C@H]1Oc1cc(F)ccc1Nc1ncnc2cc(N=S(C)(C)=O)cc(C)c12 [Example 14.7]

Target: MNK1a (Homo sapiens (Human), UniProt Q9BUB5)
Experiment: MNK1 in vitro kinase assay (Assay 3), Z'-LYTE
Assay type: biochemical
Conditions: not given
Source text: C. MNK1 In Vitro Kinase Assay (Assay 3)
MNK1 Data can be obtained from the MNK1 Z′-LYTE® assay. The MNK1 Z′-LYTE® screening protocol and assay conditions are also described on www.invitrogen.com.
The assay is described as follows:
The Z′-LYTE® biochemical assay employs a fluorescence-based, coupled-enzyme format and is based on the differential sensitivity of phosphorylated and non-phosphorylated peptides to proteolytic cleavage. The peptide substrate is labeled with two fluorophores—one at each end—that make up a FRET pair.
In the primary reaction, the kinase transfers the gamma-phosphate of ATP to a single tyrosine, serine or threonine residue in a synthetic FRET-peptide. In the secondary reaction, a site-specific protease recognizes and cleaves non-phosphorylated FRET-peptides. Phosphorylation of FRET-peptides suppresses cleavage by the Development Reagent. Cleavage disrupts FRET between the donor (i.e., coumarin) and acceptor (i.e., fluorescein) fluorophores on the FRET-peptide, whereas uncleaved, phosphorylated FRET-peptides maintain FRET. A ratiometric method, which calculates the ratio (the Emission Ratio) of donor emission to acceptor emission after excitation of the donor fluorophore at 400 nm, is used to quantitate reaction progress, as shown in the equation below.
The 2×MKNK1 (MNK1) mixture is prepared in 50 mM HEPES pH 7.5, 0.01% BRIJ-35, 10 mM MgCl2, 4 mM MnCl2, 1 mM EGTA, 2 mM DTT.
The Test Compounds are screened in 1% DMSO (final) in the well.
All Peptide/Kinase Mixtures are diluted to a 2× working concentration in the MNK1 Kinase Buffer.
All ATP Solutions are diluted to a 4× working concentration in Kinase Buffer (50 mM HEPES pH 7.5, 0.01% BRIJ-35, 10 mM MgCl2, 1 mM EGTA).
Development Reagent Solution:
The Development Reagent is diluted in Development Buffer
1. 2.5 μL—4× Test Compound
2. 5 μL—2× Peptide/Kinase Mixture
5. 60-minute Kinase Reaction incubation at room temperature
6. 5 μL—Development Reagent Solution
8. 60-minute Development Reaction incubation at room temperature
9. Read on fluorescence plate reader and analyze the data
Control C0%=Average Coumarin emission signal of the 0% Phos. Control F100%=Average Fluorescein emission signal of the 100% Phos. Control F0%=Average Fluorescein emission signal of the 0% Phos. Control Graphing Software
SelectScreen® Kinase Profiling Service uses XLfit from IDBS. […] The activity of MNK proteins can be assayed also by other in vitro kinase assay formats. […] In general, MNK kinase assays can be performed such that a MNK substrate such as a protein or a peptide, which may or may not include modifications as further described below, or others are phosphorylated by MNK proteins having enzymatic activity in vitro. The activity of a candidate agent can then be determined via its ability to decrease the enzymatic activity of the MNK protein. The kinase activity may be detected by change of the chemical, physical or immunological properties of the substrate due to phosphorylation.

Chain of MNK1a (Q9BUB5 other isoform, or with tags, fused parts or gaps): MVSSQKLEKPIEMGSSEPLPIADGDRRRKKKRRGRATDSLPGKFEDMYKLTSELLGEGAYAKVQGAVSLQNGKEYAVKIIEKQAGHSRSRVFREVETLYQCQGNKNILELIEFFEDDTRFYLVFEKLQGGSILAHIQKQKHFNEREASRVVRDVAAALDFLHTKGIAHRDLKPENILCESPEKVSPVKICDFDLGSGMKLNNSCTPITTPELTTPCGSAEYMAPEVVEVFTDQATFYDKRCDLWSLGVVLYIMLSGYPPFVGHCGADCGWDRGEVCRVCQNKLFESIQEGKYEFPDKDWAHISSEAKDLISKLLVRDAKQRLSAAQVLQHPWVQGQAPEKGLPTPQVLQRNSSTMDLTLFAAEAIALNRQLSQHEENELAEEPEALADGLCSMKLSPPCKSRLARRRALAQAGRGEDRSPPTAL

IC50 | Compound
45 nM | CO[C@@H]1COC[C@@H]1Oc1cc(F)ccc1Nc1ncnc2cc(N=S3(=O)CCCC3)cc(Cl)c12 (racemic) [Example 1.6]

Same assay, conditions: compound concentration of 1 μM, read-out: MNK1 % INH

Compound | inhibition at 1 µM
Cc1cc(N=S2(=O)CCCC2)cc2ncnc(Nc3cccnc3O[C@@H]3COC[C@@H]3O)c12 (racemic) [Example 2.3] | 102%
O=S1(=Nc2cc(F)c3c(Nc4cccnc4O[C@H]4COC[C@H]4O)ncnc3c2)CCCC1 (racemic) [Example 2.30] | 97%
Cc1cc(N=S2(=O)CCCCC2)cc2ncnc(Nc3cccnc3O[C@H]3COC[C@H]3O)c12 (racemic) [Example 2.31] | 94%
Cc1cc(N=S2(=O)CCC2)cc2ncnc(Nc3cccnc3O[C@H]3COC[C@H]3O)c12 (racemic) [Example 2.32] | 97%
O=S1(=Nc2cc(F)c3c(Nc4cccnc4O[C@H]4COC[C@H]4O)ncnc3c2)CCC1 (racemic) [Example 2.33] | 91%
CO[C@@H]1COC[C@H]1Oc1ncccc1Nc1ncnc2cc(N=S3(=O)CCC3)cc(C)c12 (racemic) [Example 2.35] | 97%
Cc1cc(N=S2(=O)CCC2)cc2ncnc(Nc3ccc(F)cc3O[C@@H]3COC[C@@H]3O)c12 (racemic) [Example 2.67] | 100%
Cc1cc(N=S2(=O)CCC2)cc2ncnc(Nc3ccc(F)cc3O[C@@H]3COC[C@@H]3O)c12 (single isomer, unassigned) [Example 1.36] | 98%
Cc1cc(N=S2(=O)CCC2)cc2ncnc(Nc3ccc(F)cc3O[C@H]3COC[C@H]3O)c12 (single isomer, unassigned) [Example 1.37] | 97%
Cc1cc(N=S2(=O)CCCC2)cc2ncnc(Nc3cccnc3O[C@@H]3COC[C@@H]3O)c12 (single isomer, unassigned) [Example 14.3] | 100%
Cc1cc(N=S2(=O)CCCC2)cc2ncnc(Nc3cccnc3O[C@H]3COC[C@H]3O)c12 (single isomer, unassigned) [Example 14.4] | 103%
Cc1cc(N=S2(=O)CCCC2)cc2ncnc(Nc3cccnc3O[C@H]3COC[C@@H]3O)c12 [Example 2.24] | 99%

The next lines start with the values.

inhibition at 1 µM | Compound
88% | CO[C@H]1COC[C@H]1Oc1ncccc1Nc1ncnc2cc(N=S(C)(C)=O)cc(C)c12 (racemic) [Example 2.1]
97% | Cc1cc(N=S(C)(C)=O)cc2ncnc(Nc3ccc(F)cc3O[C@H]3COC[C@H]3O)c12 (racemic) [Example 2.7]
70% | CO[C@@H]1COC[C@H]1Oc1ncccc1Nc1ncnc2cc(N=S(C)(C)=O)cc(C)c12 (racemic) [Example 2.34]
102% | CO[C@@H]1CC[C@@H](Oc2cc(F)ccc2Nc2ncnc3cc(N=S(C)(C)=O)cc(C)c23)CO1 (racemic) [Example 2.63]
98% | Cc1cc(N=S(C)(=O)C2CC2)cc2ncnc(Nc3ccc(F)cc3O[C@@H]3COC[C@@H]3O)c12 (mixture of isomers) [Example 2.72]
97% | Cc1cc(N=S(C)(C)=O)cc2ncnc(Nc3ccc(F)cc3O[C@H]3COC[C@@H]3O)c12 [Example 2.27]
